Consider eight compounds from patent US11590109B2 (priority 2016, dated 2023).

Broadly, the IC50 is the concentration that inhibits the measured activity by half.

Data set [1] relates to Dengue Virus 2 (type 2 dengue virus). Nature of the data set: Inhibition of viral replication (CPE) at cellular level, Dengue Virus 2 in Vero. Type of data set: cell-based. To be noted: Dengue Virus 2 in host cell Vero; for IC50: CPE. The source says: Activity Test for Inhibition of Viral Replication at Cellular Level […]
The present inventors tested inhibitory effects of the compound of the present invention on cytopathic effects (CPE) caused by viral infection on mammalian cells.
Half-inhibitory concentration IC50 and half toxic concentration TC50 of the compound against Dengue Virus 2 (type 2 dengue virus) in host cell Vero (African green monkey kidney cell).

Data set [2] is described as follows: Determination of TC50 (half toxicity concentration) in RD cells. Type of data set: cell-based. Conditions: human, host cell RD, EV71 table.
In data set [3] the test system is H3N2 (influenza virus). Conditions: H3N2 in host cell MDCK.
The test system of data set [4] is H1N1 (influenza virus). Conditions: H1N1 in host cell MDCK.
Data set [5] has as its system H7N9 (influenza virus). Conditions: H7N9 in host cell MDCK.
Data set [6] has as its system EV71 (hand-foot-and-mouth virus). To be noted: EV71 in host cell RD.
Data set [7] can be described thus: in vitro. To be noted: African green monkey.
For data set [8], the system named is H3N2 (influenza virus). Nature of the data set: microbe, parasite or virus in culture. To be noted: Influenza A virus, H3N2, MDCK.
Data set [9] relates to H1N1 (influenza virus). Nature of the data set: microbe, parasite or virus in culture. Conditions: Influenza A virus, H1N1, MDCK.
Data set [10] has as its system H7N9 (influenza virus). The experiment in a line: microbe, parasite or virus in culture. Conditions: Influenza A virus, H7N9, MDCK.
Data set [11] relates to EV71 (hand-foot-and-mouth virus). Nature of the data set: microbe, parasite or virus in culture. To be noted: Enterovirus A.
The test system of data set [12] is RSV (human respiratory syncytial virus). Nature of the data set: Inhibition of viral replication (CPE) at cellular level, RSV in Vero. To be noted: for SI (TC50/IC50): RSV in host cell Vero; for IC50: human respiratory syncytial virus, Vero.
The test system of data set [13] is JEV (Japanese encephalitis virus). The experiment in a line: Inhibition of viral replication (CPE) at cellular level, JEV in Vero. To be noted: for SI (TC50/IC50): JEV in host cell Vero; for IC50: Japanese encephalitis virus, Vero.
The test system of data set [14] is Zika Virus. The experiment in a line: Inhibition of viral replication (CPE) at cellular level, Zika Virus in Vero. Conditions: for SI (TC50/IC50): Zika Virus in host cell Vero; for IC50: Zika virus, Vero.
The nature of data set [15]: in vitro. Conditions: dog, TC50.
Where [16] appears, read: TC50, host cell Vero, Dengue Virus 2 table.
The mark [17] stands for this setting: TC50, host cell Vero, RSV table.
The mark [18] stands for this setting: TC50, host cell Vero, Zika Virus table.

For `Cc1ccc(/C=N/Nc2nc(-c3ccccc3Cl)cs2)c(C(=O)O)c1` [Compound 9-1], the “SI (TC50/IC50)” value in data set [1] came to 125.8; in [3] it was 330; in [4], 653; in data set [5], 327; in [6] it was 9; in data set [12] it was 40. Further, the “SI (TC50/IC50)” value in data set [13] is reported as 100; in data set [14], 127. Moreover, the IC50 came to 310 nM in data set [1]; 270 nM in data set [8]; 360 nM in data set [9]; 670 nM in data set [10]; 330 nM in [11]; 3360 nM in data set [12]. The figures for the IC50 in [13] and in data set [14] were 320 nM and 330 nM, respectively. Moreover, the CC50 in data set [2] stood at 3000 nM; in [7] it was 32000 nM; in data set [7] (setting [16]), 39000 nM; in data set [7] (setting [17]), 135000 nM; in data set [7] (setting [18]), 42000 nM.
Regarding `Cc1sc(N(C)/N=C/c2ccccc2C(=O)O)nc1-c1ccccc1` [Compound 12, (E)-5-methyl-4-phenyl-2-[1-methyl-2-(2-carboxybenzylidene)hydrazino]thiazole], the “SI (TC50/IC50)” value in [1] came to 65; in [3] it was 146; in data set [4] it was 77; in data set [5], 54; in [6] it was 4; in data set [12], 11.7. Also, the “SI (TC50/IC50)” value in data set [13] came to 100; in data set [14], 56.5. The IC50 is 260 nM in data set [1]; 350 nM in data set [8]; 790 nM in data set [9]; 1090 nM in data set [10]; 250 nM in data set [11]; 1790 nM in [12]. The IC50 in data set [13] was 130 nM; in data set [14] it was 230 nM. Also, the CC50 in [2] came to 1000 nM; in [15], 51000 nM; in [7] (setting [16]) it was 17000 nM; in data set [7] (setting [17]), 21000 nM; in data set [7] (setting [18]), 13000 nM.
`O=C(O)c1cc(F)ccc1/C=N/Nc1nc(-c2ccccc2Cl)cs1` [Compound 10-1]: the “SI (TC50/IC50)” value was 300 in data set [1]; 313 in data set [3]; 615 in [4]; 516 in data set [5]; 5.6 in data set [6]; 6.8 in data set [12]. For the same compound, the “SI (TC50/IC50)” value in data set [13] stood at 306; in data set [14] it was 523. For the same compound, the IC50 came out at 150 nM in data set [1]; 310 nM in data set [8]; 390 nM in data set [9]; 490 nM in data set [10]; 180 nM in [11]; 7390 nM in [12]. Besides, the values for the IC50 in [13] and in data set [14] were 160 nM and 170 nM, respectively. Besides, the CC50 in data set [2] is 1000 nM; in data set [7], 49000 nM; in data set [7] (setting [16]), 45000 nM; in data set [7] (setting [17]), 50000 nM; in [7] (setting [18]), 89000 nM.
Consider `CN(/N=C/c1ccc(C(F)(F)F)cc1C(=O)O)c1nc(-c2ccccc2Cl)cs1` [Compound 8, (E)-4-(2-chlorophenyl)-2-[1-methyl-2-(4-trifluoromethyl-2-carboxybenzylidene)hydrazino]thiazole], for which the “SI (TC50/IC50)” value is 211 in data set [1]; 233 in data set [3]; 49 in data set [4]; 66 in [5]; 11 in data set [6]; 5.5 in [12]. Further, the “SI (TC50/IC50)” value was 170 in data set [13] and 158 in [14]. The IC50 in data set [1] was found to be 90 nM; in [8] it was 210 nM; in data set [9] it was 630 nM; in [10] it was 590 nM; in data set [11], 90 nM; in data set [12], 5630 nM. Moreover, the results for the IC50 in data set [13] and in data set [14] were 100 nM and 120 nM, respectively. The CC50 in data set [2] was 1000 nM; in data set [15], 49000 nM; in data set [7], 17000 nM; in data set [7] (setting [16]), 19000 nM; in [7] (setting [17]), 31000 nM; in [7] (setting [18]), 19000 nM.
`O=C(O)c1ccccc1/C=N/Nc1nc(-c2cc(Cl)ccc2Cl)cs1` [Compound 55, (E)-2-((2-(4-(2,5-dichlorophenyl)thiazol-2-yl)hydrazono)methyl)benzoic Acid]: the “SI (TC50/IC50)” value is given as 110 in data set [1]; 45.6 in data set [3]; 50 in data set [4]; 6 in [6]; 19 in data set [12]; 206 in [14]. Also, the IC50 was 630 nM in [1]; 12000 nM in [8]; 8200 nM in [9]; 6900 nM in data set [10]; 510 nM in data set [11]; 8200 nM in [12]. For the same compound, in data set [14], half-maximal inhibition (IC50) was put at 330 nM. Besides, the CC50 in data set [2] stood at 3100 nM; in data set [15], 547000 nM; in [7] (setting [16]) it was 69000 nM; in data set [7] (setting [17]) it was 154000 nM; in data set [7] (setting [18]) it was 68000 nM.
Take `CN(/N=C/c1ccccc1C(=O)O)c1nc(-c2ccccc2Cl)cs1` [Compound 1, (E)-4-(2-chlorophenyl)-2-[1-methyl-2-(2-carboxybenzylidene)hydrazino]thiazole]: the “SI (TC50/IC50)” value was 145 in data set [1]; 125 in [3]; 83 in [4]; 11 in data set [5]; 7.1 in data set [6]; 80 in [13]. Moreover, the “SI (TC50/IC50)” value in data set [14] was 130. The IC50 worked out at 110 nM in [1]; 120 nM in data set [8]; 420 nM in [9]; 2320 nM in [10]; 140 nM in data set [11]; 4340 nM in data set [12]. The 50% inhibitory concentration (IC50) in [13] is 150 nM; in data set [14], 100 nM. Also, the CC50 in data set [2] is 1000 nM; in [7], 12000 nM; in [7] (setting [16]), 16000 nM; in data set [7] (setting [17]), 31000 nM; in data set [7] (setting [18]), 13000 nM.
Regarding `Cc1ccc(/C=N/N(C)c2nc(-c3ccccc3Cl)cs2)c(C(=O)O)c1` [Compound 9, (E)-4-(2-chlorophenyl)-2-[1-methyl-2-(4-methyl-2-carboxybenzylidene)hydrazino]thiazole], the “SI (TC50/IC50)” value in data set [1] amounted to 106; in [3], 137; in data set [4], 240; in data set [5], 83; in data set [6], 8.3; in data set [12], 15. Besides, the results for the “SI (TC50/IC50)” value in data set [13] and in data set [14] were 73.3 and 100, respectively. Besides, the IC50 in data set [1] worked out at 170 nM; in data set [8], 190 nM; in data set [9] it was 270 nM; in [10] it was 530 nM; in data set [11], 120 nM; in [12], 2270 nM. Moreover, the IC50 in data set [13] and in [14] was 150 nM in each case. The CC50 in [2] worked out at 1000 nM; in [7] it was 11000 nM; in data set [7] (setting [16]), 18000 nM; in data set [7] (setting [17]), 35000 nM; in data set [7] (setting [18]), 15000 nM.
As for `Cc1sc(N/N=C/c2ccccc2C(=O)O)nc1-c1ccccc1` [Compound 12-1], the “SI (TC50/IC50)” value in [1] amounted to 59; in data set [3], 246; in [4] it was 362; in [5], 108; in [6], 5; in [12], 5.6. Besides, the entries for the “SI (TC50/IC50)” value in [13] and in [14] were 138.7 and 110, respectively. Also, the IC50 in data set [1] was determined as 390 nM; in data set [8] it was 520 nM; in [9] it was 910 nM; in data set [10] it was 2300 nM; in data set [11] it was 390 nM; in [12], 6910 nM. In addition, the IC50 in data set [13] was found to be 310 nM; in data set [14] it was 300 nM. For the same compound, the CC50 in [2] was 2000 nM; in [7], 43000 nM; in data set [7] (setting [16]), 23000 nM; in data set [7] (setting [17]), 39000 nM; in data set [7] (setting [18]) it was 33000 nM.
